Measurements from US20230048170A1, “COMPOSITION INCLUDING CATIONIC POLYSACCHARIDE AND ANIONIC ANTIOXIDANT” (priority 2019, published 2023).

Experiment: Solubilisation of baicalin in alkaline water with or without polyquaternium-67
Type: physicochemical
Conditions: pH 10
Experimental: In Examples 1-3, a polyquaternium-67 (PQ-67) was dissolved in water to prepare a PQ-67 aqueous solution. Then, the pH of the solution was adjusted to 10 by adding 1M NaOH aqueous solution. Next, baicalin was added to the alkaline solution as much as possible. In the compositions according to Examples 1-3, […] was able to be solubilized up to an amount of 0.1% by weight, 0.2% by weight and 0.25% by weight, respectively, relative to the total weight of the composition.
On the other hand, in the composition according to Comparative Example 1 including no PQ-67, the solubilized amount of […] was limited only to 0.025% by weight relative to the total weight of the composition.
Thus, by forming a complex by the electrostatic interaction, the solubility of baicalin increased up to 10 folds.

O=C(O)[C@H]1O[C@@H](Oc2cc3oc(-c4ccccc4)cc(=O)c3c(O)c2O)[C@H](O)[C@@H](O)[C@@H]1O [baicalin]
increase of solubility of baicalin by complex formation with PQ-67: up to 10 folds
